Assay results reported in article PMC3933693, “Novel Inhibitors of Mitochondrial sn-Glycerol 3-phosphate Dehydrogenase” (PLoS ONE, 2014).
Where two headings read alike, the source gives them in different places.

What was measured:
[1] = target: T1, purified rabbit muscle cGPDH (Oryctolagus cuniculus, UniProt P08507); experiment: cGPDH enzymatic activity (NADH oxidation in the presence of DHAP); format: biochemical; conditions: Fig. 5
T1 construct: Activity of purified rabbit muscle cGPDH was measured as described by the manufacturer; purchased; host or cells: rabbit muscle
T1 sequence (P08507 1-349): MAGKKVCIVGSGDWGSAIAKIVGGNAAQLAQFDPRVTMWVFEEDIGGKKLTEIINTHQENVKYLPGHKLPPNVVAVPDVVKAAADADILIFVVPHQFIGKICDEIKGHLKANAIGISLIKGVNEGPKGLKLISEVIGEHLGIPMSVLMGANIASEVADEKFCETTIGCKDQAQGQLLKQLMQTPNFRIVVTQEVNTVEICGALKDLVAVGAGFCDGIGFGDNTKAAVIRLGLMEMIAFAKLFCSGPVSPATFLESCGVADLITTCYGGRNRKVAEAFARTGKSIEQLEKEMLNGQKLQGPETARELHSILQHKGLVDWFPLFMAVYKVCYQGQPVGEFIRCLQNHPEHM
Description: The effects of small-molecule inhibitors on cGPDH and mGPDH enzymatic activity were tested according to established procedures. Activity of purified rabbit muscle cGPDH was measured as described by the manufacturer as the rate of oxidation of NADH in the presence of DHAP on the Varian fluorimeter (λex = 365 nm, λem = 450 nm). Activity of cGPDH in frozen-thawed synaptosomes was measured at 37°C in a BMG Labtech PHERAstar Plus microplate reader as the linear rate of change in NADH absorbance (λ = 340 nm) specific to the addition of 2.5 mM DHAP and insensitive to 4 µM rotenone. Rates were converted to nmol NADH using an extinction coefficient of 6.22 mM^−1 ⋅ cm^−1 and a calculated pathlength of 0.6 cm.

mGPDH = target: T2, mGPDH (Rattus norvegicus, UniProt P35571); experiment: Superoxide/H2O2 production by mGPDH in isolated skeletal muscle mitochondria (Amplex UltraRed); format: biochemical
T2 construct: Activity of mGPDH in frozen-thawed skeletal muscle mitochondria was measured; from tissue; host or cells: skeletal muscle mitochondria
T2 sequence (P35571 43-727): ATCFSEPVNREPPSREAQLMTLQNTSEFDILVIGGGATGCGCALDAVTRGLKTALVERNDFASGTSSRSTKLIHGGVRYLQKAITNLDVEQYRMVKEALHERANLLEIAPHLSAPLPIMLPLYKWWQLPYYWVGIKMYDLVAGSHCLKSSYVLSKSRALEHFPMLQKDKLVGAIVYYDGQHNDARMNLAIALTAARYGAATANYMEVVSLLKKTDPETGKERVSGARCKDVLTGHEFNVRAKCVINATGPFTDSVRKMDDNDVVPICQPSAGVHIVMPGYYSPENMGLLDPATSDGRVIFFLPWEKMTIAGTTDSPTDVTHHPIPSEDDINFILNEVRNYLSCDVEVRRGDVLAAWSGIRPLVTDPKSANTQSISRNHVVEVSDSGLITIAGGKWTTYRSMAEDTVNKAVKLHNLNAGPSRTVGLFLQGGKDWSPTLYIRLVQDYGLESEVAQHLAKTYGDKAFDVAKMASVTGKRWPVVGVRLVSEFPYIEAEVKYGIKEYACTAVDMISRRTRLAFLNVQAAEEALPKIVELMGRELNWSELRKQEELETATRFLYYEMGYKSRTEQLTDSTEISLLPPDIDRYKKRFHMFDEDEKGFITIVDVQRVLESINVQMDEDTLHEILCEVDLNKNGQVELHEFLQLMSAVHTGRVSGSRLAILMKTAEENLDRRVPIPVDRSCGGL

[2] = system: skeletal muscle mitochondria; experiment: Mitochondrial membrane potential (ΔΨm, TMRM) powered by succinate; format: biochemical, rat
Description: Mitochondrial membrane potential (ΔΨm) was estimated fluorimetrically as described previously on the Varian fluorimeter, except the potentiometric dye TMRM was used in quench-mode in place of safranine O [34]. […] The effect of putative small-molecule inhibitors was normalized as the % change in fluorescence between vehicle treatment and complete depolarization by the uncoupler carbonyl cyanide-4-(trifluoromethoxy)phenylhydrazone (FCCP, 2 µM) added at the end of each run. When indicated, the K^+/H^+ exchanger nigericin (80 ng ⋅ ml^−1) was added to collapse the pH gradient across the mitochondrial inner membrane (ΔpH) and maximize ΔΨm.
The assay buffer for both H2O2 and ΔΨm measurements was 120 mM KCl, 5 mM HEPES, 1 mM EGTA, 0.3% (w/v) BSA without or with 250 nM free calcium at pH 7.0. All assays were performed with stirring at 37°C.
Structure/activity analysis was performed on 18 structural analogs of two structurally-related hits from the primary screen (iGP-1 and iGP-2). These 20 compounds were tested in duplicate at 0.08–80 µM (0.1% DMSO final) in microplate format for effects on site-specific H2O2 production as described above. Additionally, four microplate assays for ΔΨm were run in parallel to the H2O2 assays. These assays were as described under “Measurement of mitochondrial H2O2 production and membrane potential” except that each substrate condition was assayed in a separate microplate. […] Plates were incubated in the dark at room temperature for 30–40 min (H2O2) or 10–15 min (ΔΨm) after the addition of substrate, and endpoint fluorescence was measured on the Victor plate reader. Endpoints were chosen for the H2O2 assays to provide good signal-to-noise ratios and linear rates of change without the indicator dye limiting the reaction. Endpoints for the ΔΨm assays were determined in pilot experiments as the times for TMRM accumulation to reach a steady state. […] Endpoint fluorescence values were normalized as described in the previous section with wells containing FCCP serving as positive controls for the ΔΨm assays.

effect on the soluble form of GPDH (cGPDH) activity [1]: did not inhibit | IC50 (mGPDH; Fig. 4 structure/activity microplate assay, 0.08–80 µM, estimated, means of two replicates, read-out: mGPDH H2O2 production IC50): 8 µM | IC50 (mGPDH; Fig. 9B, read-out: mGPDH H2O2 Production IC50): 13.6 ± 1.3 µM | mGPDH (% change from DMSO) (mGPDH; primary screen, ∼2.5 µM, average of duplicates, 16.7 mM glycerol phosphate, no added calcium): -21.6% | inhibition at 80 µM (mGPDH; read-out: mGPDH H2O2 production (% change at 80 μM)): 55% | IC50 (mGPDH; titration up to 80 µM (Fig. 6B, Fig. 7B), read-out: half-maximal effect on H2O2 production by mGPDH): ~8 µM
SMILES: O=C(O)CCC(=O)Nc1ccc(-c2nc3ccccc3[nH]2)cc1 [iGP-1]
effect on ΔΨm powered by 0.5 mM succinate ([2]; 80 µM, 0.5 mM succinate): significantly decreased | effect on ΔΨm powered by 5 mM succinate ([2]; 5 mM succinate): no effect
